The results in this text go back to US20160237071A1, “T-TYPE CALCIUM CHANNEL INHIBITOR” (NISSAN CHEMICAL INDUSTRIES, LTD., priority 2013, published 2016).

Each structure is given as a SMILES string.

T1 sequence (O95180 whole entry): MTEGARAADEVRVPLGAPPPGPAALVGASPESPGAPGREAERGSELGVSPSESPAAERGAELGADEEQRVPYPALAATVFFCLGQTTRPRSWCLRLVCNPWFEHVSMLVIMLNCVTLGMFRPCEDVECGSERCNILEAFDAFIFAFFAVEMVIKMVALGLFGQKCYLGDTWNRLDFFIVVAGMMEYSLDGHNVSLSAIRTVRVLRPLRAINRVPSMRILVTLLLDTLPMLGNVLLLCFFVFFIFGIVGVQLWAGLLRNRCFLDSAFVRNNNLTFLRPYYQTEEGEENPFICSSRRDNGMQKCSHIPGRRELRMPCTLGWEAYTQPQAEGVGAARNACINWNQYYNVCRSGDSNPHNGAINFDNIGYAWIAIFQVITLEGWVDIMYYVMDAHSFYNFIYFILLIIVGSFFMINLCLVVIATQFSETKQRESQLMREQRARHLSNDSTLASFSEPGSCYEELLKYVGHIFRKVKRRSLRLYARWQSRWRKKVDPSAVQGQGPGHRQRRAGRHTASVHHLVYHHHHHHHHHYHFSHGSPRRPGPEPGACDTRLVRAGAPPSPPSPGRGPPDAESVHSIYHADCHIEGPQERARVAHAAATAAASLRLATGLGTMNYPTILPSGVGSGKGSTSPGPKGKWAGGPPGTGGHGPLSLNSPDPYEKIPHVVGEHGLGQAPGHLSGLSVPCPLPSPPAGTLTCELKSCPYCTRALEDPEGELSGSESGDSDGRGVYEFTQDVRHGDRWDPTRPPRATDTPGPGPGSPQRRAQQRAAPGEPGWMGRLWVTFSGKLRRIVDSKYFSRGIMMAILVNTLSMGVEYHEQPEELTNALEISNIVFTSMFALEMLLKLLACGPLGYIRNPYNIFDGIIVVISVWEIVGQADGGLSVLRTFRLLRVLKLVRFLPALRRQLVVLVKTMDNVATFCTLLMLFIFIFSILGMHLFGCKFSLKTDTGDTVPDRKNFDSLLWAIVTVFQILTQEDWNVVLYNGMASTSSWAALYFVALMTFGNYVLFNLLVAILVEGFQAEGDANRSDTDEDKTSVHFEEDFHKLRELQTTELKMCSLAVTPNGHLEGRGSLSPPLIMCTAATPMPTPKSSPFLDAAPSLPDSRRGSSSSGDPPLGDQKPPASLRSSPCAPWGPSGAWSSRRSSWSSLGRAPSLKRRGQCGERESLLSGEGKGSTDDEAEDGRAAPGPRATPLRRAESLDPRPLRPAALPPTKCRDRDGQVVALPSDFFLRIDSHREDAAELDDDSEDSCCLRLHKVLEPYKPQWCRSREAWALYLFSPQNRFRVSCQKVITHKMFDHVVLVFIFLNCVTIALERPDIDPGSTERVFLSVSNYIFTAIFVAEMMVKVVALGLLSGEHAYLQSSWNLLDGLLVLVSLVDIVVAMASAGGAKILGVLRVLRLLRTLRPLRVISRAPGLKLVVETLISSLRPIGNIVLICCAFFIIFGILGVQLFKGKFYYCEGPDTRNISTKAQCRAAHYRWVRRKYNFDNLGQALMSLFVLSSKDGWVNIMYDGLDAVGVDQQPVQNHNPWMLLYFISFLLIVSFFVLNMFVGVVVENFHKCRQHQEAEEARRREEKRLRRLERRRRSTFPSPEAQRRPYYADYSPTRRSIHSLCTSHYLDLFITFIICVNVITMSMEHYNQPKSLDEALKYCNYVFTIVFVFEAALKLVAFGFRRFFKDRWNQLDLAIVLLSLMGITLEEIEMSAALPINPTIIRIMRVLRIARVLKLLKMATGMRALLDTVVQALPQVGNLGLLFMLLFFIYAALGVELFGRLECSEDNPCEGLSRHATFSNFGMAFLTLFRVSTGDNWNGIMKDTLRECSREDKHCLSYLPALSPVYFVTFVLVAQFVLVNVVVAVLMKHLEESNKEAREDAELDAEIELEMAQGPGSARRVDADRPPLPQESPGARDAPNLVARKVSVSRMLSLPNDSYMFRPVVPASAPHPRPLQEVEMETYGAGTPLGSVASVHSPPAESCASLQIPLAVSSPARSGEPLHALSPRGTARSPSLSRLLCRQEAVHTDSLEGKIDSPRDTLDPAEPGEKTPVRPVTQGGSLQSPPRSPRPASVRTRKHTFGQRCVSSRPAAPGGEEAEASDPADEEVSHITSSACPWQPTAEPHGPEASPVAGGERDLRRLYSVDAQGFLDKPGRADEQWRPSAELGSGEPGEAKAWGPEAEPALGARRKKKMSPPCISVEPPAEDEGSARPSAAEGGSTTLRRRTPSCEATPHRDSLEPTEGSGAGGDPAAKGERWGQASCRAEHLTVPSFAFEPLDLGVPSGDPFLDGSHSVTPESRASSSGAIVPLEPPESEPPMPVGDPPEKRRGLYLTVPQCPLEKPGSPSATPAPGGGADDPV

The assay has as its target T1, Human T-type calcium channel (Cav 3.2) (Homo sapiens, UniProt O95180).
T1 construct: Edward Perez-Reyes, University of Virginia, USA; host or cells: HEK293
Briefly: Calcium influx inhibition assay. As to conditions: T-type calcium channel inhibition concentration; Cav 3.2 expressing HEK293 cells, FLIPR Calcium 4 fluorescence; read-out: C50. Format: cell-based. As for the experimental part:
Human T-type calcium channel (Cav 3.2) expressing HEK293 cells were obtained from Prof. Edward Perez-Reyes, University of Virginia, USA. The calcium-sensitive fluorescent dye used was FLIPR Calcium 4 Assay Kit (Molecular Devices).
To a black 96-well plate with a clear bottom coated with type I collagen, the human T-type calcium channel (Cav 3.2) expressing HEK293 cells were seeded and cultured overnight, and the culture medium was removed. A solution of the calcium-sensitive fluorescent dye was added, and the whole was incubated at 37° C. in an atmosphere of 5% carbon dioxide for 30 minutes. To the plate, a diluted solution of a compound was added, and the whole was further incubated at 37° C. in an atmosphere of 5% carbon dioxide for 30 minutes. While fluorescence was continuously analyzed from the bottom with a FlexStation 3 (Molecular Devices), a calcium solution was added. […] From the rise in the fluorescence from the base line, the inhibition percentage was calculated. The logarithms of compound concentrations were plotted with respect to the inhibition activities to obtain an IC50 value (50% inhibition concentration).
Consider `COc1cccc2c1C(O)CN(c1nc(C)n(Cc3ccc(C(F)(F)F)s3)c(=O)n1)C2` (stereo not drawn) [8a], for which the IC50 came out at 63 nM.

As to `CCOC(=O)c1cc2c(s1)CCN(c1nc(C)n(Cc3ccc(C(F)(F)F)s3)c(=O)n1)C2` [compound 51], the IC50 was 340 nM.

Take `Cc1nc(N2CCc3ccccc32)nc(=O)n1Cc1ccc(C(F)(F)F)s1` [compound 34]: the IC50 stood at 750 nM.

With `Cc1nc(N2CCc3ccccc3C2)nc(=O)n1Cc1ccc(C(F)(F)F)s1` [compound 44], the IC50 turned out to be 320 nM.

For the molecule `Cc1nc(N2CCc3c([nH]c4cc(F)ccc34)C2)nc(=O)n1Cc1cnc(C(F)(F)F)s1` [compound 58], the IC50 amounted to 52 nM.

In the case of `O=c1nc(N2CCc3cc(OCC(F)(F)F)ccc3C2)ncn1Cc1ccc(C(F)(F)F)s1` [compound 13], the IC50 was determined as 55 nM.

As for `COc1ccc2c(c1)CN(c1nc(C)n(Cc3ccc(C(F)(F)F)s3)c(=O)n1)CC2O` (stereo not drawn) [8b], the IC50 amounted to 790 nM.

On to `Cc1nc(N2Cc3ccc(OC(C)C)cc3C(O)C2)nc(=O)n1Cc1ccc(C(F)(F)F)s1` (stereo not drawn) [compound 38], for which the IC50 is 38 nM.

For `COc1ccc2c(c1)CN(c1nc(C)n(Cc3ccc(C(F)(F)F)s3)c(=O)n1)C2` [compound 48], the IC50 worked out at 1900 nM.

As to `Cc1nc(N2CCc3cc(Cl)ncc3C2)nc(=O)n1Cc1ccc(C(F)(F)F)s1` [compound 16], the IC50 is 650 nM.

Regarding `O=c1nc(N2CCc3cc(OC(F)F)ccc3C2)ncn1Cc1ccc(C(F)(F)F)s1` [compound 11], the IC50 is 34 nM.

In the case of `Cc1nc(N2CCc3cc(F)ccc3C2)nc(=O)n1Cc1ccc(C(F)(F)F)s1` [compound 52], the IC50 turned out to be 290 nM.

In the case of `Cc1nc(N2Cc3ccc(OC(F)F)cc3C(O)C2)nc(=O)n1Cc1ccc(C(F)(F)F)s1` (stereo not drawn) [compound 53], the IC50 came to 18 nM.

For `COc1ccc2c(c1)CCN(c1nc(C)n(Cc3cnc(C(F)(F)F)s3)c(=O)n1)C2` [compound 24], the IC50 is 940 nM.

On to `Cc1nc(N2CCc3nc(C4CC4)ccc3C2)nc(=O)n1Cc1ccc(C(F)(F)F)s1` [compound 31], for which the IC50 is 240 nM.

With `COc1ccc2c(c1)C(O)CN(c1nc(C)n(Cc3ccc(F)cc3)c(=O)n1)C2` (stereo not drawn) [compound 26], the IC50 came out at 3000 nM.

Regarding `Cc1nc(N2CCc3c([nH]c4cc(F)ccc34)C2)nc(=O)n1Cc1ccc(C(F)(F)F)s1` [compound 57], the IC50 turned out to be 6.4 nM.

For `O=c1nc(N2CCc3cc(C(F)(F)F)ccc3C2)ncn1Cc1ccc(C(F)(F)F)s1` [compound 1], the IC50 amounted to 62 nM.

Consider `COc1ccc2c(c1)[C@@H](O)CN(c1nc(C)n(Cc3ccc(C(F)(F)F)s3)c(=O)n1)C2` [9a], for which the IC50 was 4.9 nM.

Turning to `Cc1nc(N2Cc3ccc(O)cc3C(O)C2)nc(=O)n1Cc1ccc(C(F)(F)F)s1` (stereo not drawn) [compound 42], the IC50 is 290 nM.

Consider `COc1ccc2c(c1)C(O)CN(c1nc(C)n(Cc3cnc(C(F)(F)F)s3)c(=O)n1)C2` (stereo not drawn) [compound 25], for which the IC50 is 450 nM.

As for `COc1nc2c(s1)CN(c1nc(C)n(Cc3ccc(C(F)(F)F)s3)c(=O)n1)CC2` [compound 21], the IC50 stood at 360 nM.

As for `Cc1nc(N2Cc3ccc(OCC(C)C)cc3C(O)C2)nc(=O)n1Cc1ccc(C(F)(F)F)s1` (stereo not drawn) [compound 39], the IC50 is 75 nM.

Take `Cc1nc(N2Cc3ccc(OCC(F)(F)F)cc3C2)nc(=O)n1Cc1ccc(C(F)(F)F)s1` [compound 46]: the IC50 was determined as 360 nM.

For the molecule `Cc1nc(N2CCc3cc(OS(=O)(=O)C(F)(F)F)ccc3C2)nc(=O)n1Cc1ccc(C(F)(F)F)s1` [compound 41], the IC50 stood at 50 nM.

With `COc1ccc2c(c1)C(N)CN(c1nc(C)n(Cc3ccc(C(F)(F)F)s3)c(=O)n1)C2` (stereo not drawn) [compound 32], the IC50 was found to be 27 nM.

Consider `COc1ccc2c(c1)CCN(c1nc(C)n(Cc3ccc(C(F)(F)F)s3)c(=O)n1)CC2` [compound 29], for which the IC50 turned out to be 40 nM.

Regarding `COc1ccc2c(n1)CCN(c1nc(C)n(Cc3ccc(C(F)(F)F)s3)c(=O)n1)C2` [compound 22], the IC50 turned out to be 310 nM.

Regarding `CCOc1ccc2c(c1)C(O)CN(c1nc(C)n(Cc3ccc(C(F)(F)F)s3)c(=O)n1)C2` (stereo not drawn) [compound 18], the IC50 is 18 nM.

As for `Cc1nc(N2CCc3nc(Cl)ccc3C2)nc(=O)n1Cc1ccc(C(F)(F)F)s1` [compound 17], the IC50 turned out to be 350 nM.

`COc1ccc2c(c1)CCCN(c1nc(C)n(Cc3ccc(C(F)(F)F)s3)c(=O)n1)C2` [compound 49]: the IC50 is 480 nM.

With `CCOC(=O)C1Cc2ccccc2CN1c1nc(C)n(Cc2ccc(C(F)(F)F)s2)c(=O)n1` (stereo not drawn) [compound 27], the IC50 came to 2800 nM.

In the case of `Cc1cc2c(s1)CCN(c1nc(C)n(Cc3ccc(C(F)(F)F)s3)c(=O)n1)C2` [compound 19], the IC50 is 260 nM.

Turning to `Cc1nc(N2Cc3ccc(OCC(N)=O)cc3C(O)C2)nc(=O)n1Cc1ccc(C(F)(F)F)s1` (stereo not drawn) [compound 45], the IC50 is 320 nM.

`COc1ccc2c(c1)C(=O)CN(c1nc(C)n(Cc3ccc(C(F)(F)F)s3)c(=O)n1)C2` [compound 36]: the IC50 was found to be 520 nM.

Take `N#Cc1ccc2c(c1)CN(c1ncn(Cc3ccc(C(F)(F)F)s3)c(=O)n1)CC2` [compound 6]: the IC50 turned out to be 1800 nM.

Turning to `COc1ccc2c(c1)C(O)CN(c1ncn(Cc3ccc(C(F)(F)F)s3)c(=O)n1)C2` (stereo not drawn) [compound 3], the IC50 turned out to be 95 nM.

For the molecule `COc1ccc2c(c1)[C@H](O)CN(c1nc(C)n(Cc3ccc(C(F)(F)F)s3)c(=O)n1)C2` [9b], the IC50 is 130 nM.

`COc1ccc2c(c1)C(O)CN(c1nc(C)n(Cc3ccc(OS(=O)(=O)C(F)(F)F)nc3)c(=O)n1)C2` (stereo not drawn) [compound 10]: the IC50 was determined as 320 nM.

`Cc1nc(N2CCc3cc(OC(F)F)ccc3C2)nc(=O)n1Cc1ccc(C(F)(F)F)s1` [compound 14]: the IC50 stood at 45 nM.

Regarding `Cc1nc(N2CCc3cc(OCC(F)(F)F)ccc3C2)nc(=O)n1Cc1cnc(C(F)(F)F)s1` [compound 5], the IC50 was determined as 320 nM.

Turning to `Cc1nc(N2CCc3c(Cl)ccc(Cl)c3C2)nc(=O)n1Cc1ccc(C(F)(F)F)s1` [compound 28], the IC50 is 320 nM.

Consider `COc1ccc2c(c1)C(O)CN(c1nc(C)n(Cc3ccc(C(F)(F)F)s3)c(=O)n1)C2` (stereo not drawn) [compound 4], for which the IC50 is 20 nM.

As for `Cc1nc(N2CCn3c(nc4cc(F)ccc43)C2)nc(=O)n1Cc1ccc(C(F)(F)F)s1` [compound 59], the IC50 came to 270 nM.

As for `Cc1nc(N2Cc3cc4c(cc3C(O)C2)OCO4)nc(=O)n1Cc1ccc(C(F)(F)F)s1` (stereo not drawn) [compound 54], the IC50 is 42 nM.

In the case of `Cc1nc(N2Cc3ccc(OCC(F)(F)F)cc3C(O)C2)nc(=O)n1Cc1cnc(C(F)(F)F)s1` (stereo not drawn) [compound 23], the IC50 was determined as 340 nM.

With `Cc1nc(N2CCc3cc(OCC(F)(F)F)ccc3C2)nc(=O)n1Cc1ccc(C(F)(F)F)s1` [compound 40], the IC50 turned out to be 250 nM.

For the molecule `Cc1nc(N2CCc3sc(CO)cc3C2)nc(=O)n1Cc1ccc(C(F)(F)F)s1` [compound 20], the IC50 came out at 400 nM.

Take `Cc1nc(N2Cc3ccc(OCC(F)(F)F)cc3C(O)C2)nc(=O)n1Cc1ccc(C(F)(F)F)s1` (stereo not drawn) [compound 15]: the IC50 was found to be 10 nM.

Turning to `COc1cc2c(cc1OC)CN(c1ncn(Cc3ccc(C(F)(F)F)s3)c(=O)n1)CC2` [compound 2], the IC50 worked out at 540 nM.

With `COc1ccc2c(c1)C(F)CN(c1nc(C)n(Cc3ccc(C(F)(F)F)s3)c(=O)n1)C2` (stereo not drawn) [compound 35], the IC50 worked out at 51 nM.

Turning to `COc1ccc2c(c1)/C(=N/O)CN(c1nc(C)n(Cc3ccc(C(F)(F)F)s3)c(=O)n1)C2` [compound 37], the IC50 was 130 nM.

Regarding `Cc1ccc2c(n1)CCN(c1nc(C)n(Cc3ccc(C(F)(F)F)s3)c(=O)n1)C2` [compound 30], the IC50 was found to be 3200 nM.

Turning to `Cc1nc(N2Cc3ccc(OCC4CC4)cc3C(O)C2)nc(=O)n1Cc1ccc(C(F)(F)F)s1` (stereo not drawn) [compound 47], the IC50 amounted to 52 nM.

`COc1ccc2c(c1OC)C(O)CN(c1nc(C)n(Cc3ccc(C(F)(F)F)s3)c(=O)n1)C2` (stereo not drawn) [compound 50]: the IC50 came to 410 nM.

With `Cc1nc(N2CCc3ccc(C(F)(F)F)cc3C2)nc(=O)n1Cc1ccc(C(F)(F)F)s1` [compound 43], the IC50 turned out to be 320 nM.

For `O=c1nc(N2CCc3cc(OS(=O)(=O)C(F)(F)F)ccc3C2)ncn1Cc1ccc(C(F)(F)F)s1` [compound 12], the IC50 worked out at 54 nM.
